Data from patent publication US10994015B2, “EGFR proteolysis targeting chimeric molecules and associated methods of use” (Arvinas Operations, Inc., priority 2016, dated 2021).

How the values were obtained:
[1] = molecular target: EGFR L858R/T790M (Homo sapiens (Human), UniProt P00533, L858R/T790M); assay: TR-FRET assay for ERBB kinases; type: biochemical; conditions: geometric mean if measured more than once
Procedure, shortened: (§1)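 HEPES pH 7.5 buffer with 10 mM MgCl2 and 1 mM DTT; 10 min enzyme–compound pre-incubation. A 10 min room-temperature reaction was initiated by a mix carrying 3 mM ATP, stopped with EDTA, and detected by time-resolved FRET at 340 nm excitation.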

[2] = molecular target: EGFR L858R/T790M/C797S (Homo sapiens (Human), UniProt P00533, C797S/L858R/T790M); assay: TR-FRET assay for ERBB kinases; type: biochemical; conditions: geometric mean if measured more than once
Procedure, shortened: as §1

[3] = molecular target: EGFR WT (Homo sapiens (Human), UniProt P00533); assay: TR-FRET assay for ERBB kinases; type: biochemical; conditions: geometric mean if measured more than once
Procedure, shortened: as §1

[4] = molecular target: EGFR Exon20NPG (Homo sapiens (Human), UniProt P00533, INS770NPG); assay: TR-FRET assay for ERBB kinases; type: biochemical; conditions: geometric mean if measured more than once
Procedure, shortened: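 Phosphorylation of fluorescein-labeled poly-GluTyr read as TR-FRET using Tb-pY20 antibody after EDTA stop, with 340 nm excitation. Kinase reaction ran 10 min at room temperature following 10 min compound pre-incubation; substrate mix held 3 mM ATP and 30 µM peptide before addition. Buffer was HEPES pH 7.5.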

[5] = molecular target: EGFR L858R/T790M double mutant (H1975) (Homo sapiens (Human), UniProt P00533, L858R/T790M); assay: EGFR protein degradation assay (Western blot); type: cell-based; conditions: 72 hours, 300 nM to 10 nM
Procedure, shortened: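 EGFR protein levels were measured by immunoblotting. Lysate protein was quantified by BCA, and 10 μg per sample was separated by SDS/PAGE at 165V for 2 hours and transferred to PVDF. Membranes were blocked in TBS-T with 5% milk for 1 hour, probed overnight at 4° C with EGFR and tubulin antibodies, then secondary antibody for 1 hour, and detected by ECL on a Chemidoc.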

[6] = molecular target: EGFR L858R/T790M/C797S triple mutant (H520*) (Homo sapiens (Human), UniProt P00533, C797S/L858R/T790M); assay: EGFR protein degradation assay (Western blot); type: cell-based; conditions: 72 hours, 300 nM to 10 nM
Protocol: EGFR Protein Degradation assay
Cells were incubated overnight at 37° C., 5% CO2 prior to compound addition. A 10 mM compound stock in DMSO was serially diluted in DMSO to provide the following stock concentrations: 1, 0.3, 0.1, 0.03 and 0.01 mM. An appropriate volume of each compound dilution, together with a DMSO vehicle control, was added to media to provide a 2× compound solution. […] At the end of the compound treatment, cells were washed once with ice-cold phosphate-buffered saline (PBS) and treated with lysis solution (1× lysis buffer, Cell Signaling Technologies (CST #9803) supplemented with Piarce™ protease inhibitors, #A32953, Thermo Fisher Scientific, TFS). Lysates were collected and clarified of cell debris by spinning at 10K rpm for 10 minutes. A specific volume of supernatant was retrieved for protein quantification (Pierce™ BCA kit, TFS #23225) and for Western analysis. Loading buffer supplemented with EDTA and reducing agent was added to each supernatant. A specific volume of supernatant (determined by protein assay: […] loaded per sample) was loaded into a NuPAGE™ 4-12% Bis-Tris gel (TFS). Samples were run at 165V in MOPS running buffer for 2 hours and then transferred to PVDF blotting membrane using a dry blotting system (iBlot2, TFS). Membranes were blocked in Tris-buffered saline supplemented with Tween, 0.1% (TBST) containing 5% non-fat dry milk, (AmericanBio). Following block, membranes were washed once with TBST. […] Membranes were washed 3× with TBST prior to addition of secondary antibody (1:10 000, anti-rabbit HRP-linked, CST #7074) in TBST with 3% BSA and then incubated at room temperature for one hour. Membranes were then washed 3× with TBS and signal developed by exposure to developer (SuperSignal West Femto, TFS) for 5 minutes. Membranes were then immediately imaged using a BioRad Chemidoc.

EGFR L858R/T790M, sequence (P00533 25-1210 T790M/L858R): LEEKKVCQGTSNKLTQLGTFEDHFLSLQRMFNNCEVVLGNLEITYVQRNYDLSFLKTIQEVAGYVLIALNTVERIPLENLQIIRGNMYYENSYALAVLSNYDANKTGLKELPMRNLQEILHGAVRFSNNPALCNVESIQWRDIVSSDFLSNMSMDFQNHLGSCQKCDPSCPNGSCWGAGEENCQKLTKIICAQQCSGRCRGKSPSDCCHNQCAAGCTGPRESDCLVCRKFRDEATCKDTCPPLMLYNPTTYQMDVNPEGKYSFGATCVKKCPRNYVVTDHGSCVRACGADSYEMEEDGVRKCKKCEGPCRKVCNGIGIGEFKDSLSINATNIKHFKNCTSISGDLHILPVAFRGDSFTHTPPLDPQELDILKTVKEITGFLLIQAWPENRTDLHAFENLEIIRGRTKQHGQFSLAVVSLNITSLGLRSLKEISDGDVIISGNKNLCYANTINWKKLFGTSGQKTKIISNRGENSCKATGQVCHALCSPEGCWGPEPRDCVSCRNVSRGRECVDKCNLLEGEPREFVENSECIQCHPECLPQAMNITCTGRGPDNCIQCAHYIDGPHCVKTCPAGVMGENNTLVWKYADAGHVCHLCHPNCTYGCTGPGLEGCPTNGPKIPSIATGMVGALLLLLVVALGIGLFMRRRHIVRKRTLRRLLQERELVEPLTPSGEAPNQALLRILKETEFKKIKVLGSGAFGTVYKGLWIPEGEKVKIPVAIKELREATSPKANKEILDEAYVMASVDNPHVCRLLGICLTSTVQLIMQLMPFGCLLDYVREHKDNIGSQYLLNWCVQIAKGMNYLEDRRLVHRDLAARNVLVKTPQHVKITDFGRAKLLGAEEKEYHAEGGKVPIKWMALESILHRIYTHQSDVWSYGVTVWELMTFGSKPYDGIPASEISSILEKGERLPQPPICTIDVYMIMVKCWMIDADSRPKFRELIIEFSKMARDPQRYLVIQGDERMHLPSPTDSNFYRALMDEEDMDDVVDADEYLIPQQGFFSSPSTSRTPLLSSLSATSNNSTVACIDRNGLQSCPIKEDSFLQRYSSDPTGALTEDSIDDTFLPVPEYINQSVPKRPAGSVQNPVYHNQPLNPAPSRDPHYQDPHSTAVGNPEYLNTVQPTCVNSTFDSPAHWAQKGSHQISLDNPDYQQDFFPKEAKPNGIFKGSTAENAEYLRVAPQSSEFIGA
EGFR L858R/T790M double mutant (H1975), sequence (P00533 25-1210 T790M/L858R): as above
EGFR L858R/T790M/C797S triple mutant (H520*), sequence (P00533 25-1210 T790M/C797S/L858R): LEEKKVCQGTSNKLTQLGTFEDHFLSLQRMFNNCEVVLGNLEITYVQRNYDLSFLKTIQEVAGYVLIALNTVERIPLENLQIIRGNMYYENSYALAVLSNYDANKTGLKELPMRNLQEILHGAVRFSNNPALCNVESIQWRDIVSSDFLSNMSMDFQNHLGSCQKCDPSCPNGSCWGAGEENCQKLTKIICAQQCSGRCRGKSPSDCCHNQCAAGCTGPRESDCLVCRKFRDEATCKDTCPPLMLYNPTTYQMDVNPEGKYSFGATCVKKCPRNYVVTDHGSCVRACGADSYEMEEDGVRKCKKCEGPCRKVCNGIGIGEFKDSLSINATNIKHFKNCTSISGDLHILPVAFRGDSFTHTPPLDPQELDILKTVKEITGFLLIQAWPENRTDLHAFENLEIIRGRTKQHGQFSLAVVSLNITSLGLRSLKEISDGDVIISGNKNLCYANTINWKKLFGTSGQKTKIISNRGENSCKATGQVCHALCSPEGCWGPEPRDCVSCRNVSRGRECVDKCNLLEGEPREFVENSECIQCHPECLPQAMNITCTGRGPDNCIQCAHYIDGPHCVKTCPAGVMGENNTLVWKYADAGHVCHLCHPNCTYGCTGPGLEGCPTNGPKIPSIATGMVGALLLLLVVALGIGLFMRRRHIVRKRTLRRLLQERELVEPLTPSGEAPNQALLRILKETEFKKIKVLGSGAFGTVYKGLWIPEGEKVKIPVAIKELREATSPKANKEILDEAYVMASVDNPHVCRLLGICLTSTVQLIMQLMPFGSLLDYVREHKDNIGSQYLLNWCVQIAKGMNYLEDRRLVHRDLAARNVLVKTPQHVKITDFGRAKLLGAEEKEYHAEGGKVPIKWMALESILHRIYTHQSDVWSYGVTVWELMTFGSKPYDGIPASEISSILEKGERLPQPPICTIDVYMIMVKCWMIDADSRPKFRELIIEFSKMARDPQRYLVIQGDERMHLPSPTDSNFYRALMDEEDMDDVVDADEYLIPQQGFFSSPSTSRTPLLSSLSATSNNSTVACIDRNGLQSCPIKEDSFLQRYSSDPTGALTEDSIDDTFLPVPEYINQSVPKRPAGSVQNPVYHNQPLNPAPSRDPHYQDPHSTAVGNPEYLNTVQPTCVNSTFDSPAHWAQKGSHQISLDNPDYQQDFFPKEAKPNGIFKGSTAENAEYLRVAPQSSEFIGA
EGFR L858R/T790M/C797S, sequence (P00533 25-1210 T790M/C797S/L858R): as above

Compound | IC50 [1] | IC50 [2] | IC50 [3] | IC50 [4] | EGFR protein remaining, EGFR L858R/T790M double mutant [5] | EGFR protein remaining, EGFR L858R/T790M/C797S triple mutant [6]
COC1CCN(c2nccc(Nc3cc4c(cn3)nc(COCCOCCN3CCN(CCCCc5ccc6c(c5)C(=O)N(C5CCC(=O)NC5=O)C6=O)CC3)n4C(C)C)n2)CC1 (stereo not drawn) [compound 87] | 15 µM | 3.3 µM | > 30 µM | 14 µM | C (>80% EGFR protein remaining after 72 hours of incubation with the test compound at a concentration of 300 nM) | C (>80% EGFR protein remaining after 72 hours of incubation with the test compound at a concentration of 300 nM)
Cc1ncsc1-c1ccc([C@H](C)NC(=O)[C@H]2C[C@H](O)CN2C(=O)[C@@H](NC(=O)COCCCC#Cc2cccc3c2C(=O)N(C(C(=O)Nc2nccs2)c2cc(F)ccc2O)C3)C(C)(C)C)cc1 (stereo partly drawn) [compound 92] | 6.2 µM | 1.1 µM | 9.8 µM | 3.1 µM | C (>80% EGFR protein remaining after 72 hours of incubation with the test compound at a concentration of 300 nM) | C (>80% EGFR protein remaining after 72 hours of incubation with the test compound at a concentration of 300 nM)
Cc1ncsc1-c1ccc([C@H](C)NC(=O)[C@H]2C[C@H](O)CN2C(=O)[C@@H](NC(=O)COCCCOCCCC#Cc2cccc3c2C(=O)N(C(C(=O)Nc2nccs2)c2cc(F)ccc2O)C3)C(C)(C)C)cc1 (stereo partly drawn) [compound 93] | 3.5 µM | 0.53 µM | 11 µM | 3.3 µM | C (>80% EGFR protein remaining after 72 hours of incubation with the test compound at a concentration of 300 nM) | C (>80% EGFR protein remaining after 72 hours of incubation with the test compound at a concentration of 300 nM)
O=C1CCC(N2C(=O)c3ccc(N4CCN(CCCOCCCC#Cc5cccc6c5C(=O)N(C(C(=O)Nc5nccs5)c5cc(F)ccc5O)C6)CC4)cc3C2=O)C(=O)N1 (stereo not drawn) [compound 95] | 6.7 µM | 2.2 µM | 4.2 µM | 3.3 µM | C (>80% EGFR protein remaining after 72 hours of incubation with the test compound at a concentration of 300 nM) | C (>80% EGFR protein remaining after 72 hours of incubation with the test compound at a concentration of 300 nM)
Cc1ncsc1-c1ccc(CNC(=O)[C@@H]2C[C@@H](O)CN2C(=O)[C@@H](NC(=O)COCCOCCOCCOCC#Cc2cccc3c2C(=O)N(C(C(=O)Nc2nccs2)c2cc(F)ccc2O)C3)C(C)(C)C)cc1 (stereo partly drawn) [compound 254] | 1 µM | 0.1 µM | 1.1 µM | 5.7 µM | C (>80% EGFR protein remaining after 72 hours of incubation with the test compound at a concentration of 300 nM) | C (>80% EGFR protein remaining after 72 hours of incubation with the test compound at a concentration of 300 nM)
Cc1ncsc1-c1ccc(CNC(=O)[C@@H]2C[C@@H](O)CN2C(=O)[C@@H](NC(=O)COCCOCCOCCOCCOCC#Cc2cccc3c2C(=O)N(C(C(=O)Nc2nccs2)c2cc(F)ccc2O)C3)C(C)(C)C)cc1 (stereo partly drawn) [compound 255] | 0.83 µM | 0.14 µM | 0.58 µM | 4.7 µM | C (>80% EGFR protein remaining after 72 hours of incubation with the test compound at a concentration of 300 nM) | B (≤80% and >50% EGFR protein remaining after 72 hours of incubation with the test compound at a concentration between 300 nM and 10 nM)
Cc1ncsc1-c1ccc(CNC(=O)[C@@H]2C[C@@H](O)CN2C(=O)[C@H](C(C)C)N2Cc3ccccc3C2=O)c(OCCOCCOCCOCC#Cc2cccc3c2C(=O)N([C@@H](C(=O)Nc2nccs2)c2cc(F)ccc2O)C3)c1 [compound 258] | 5.9 µM | 4 µM | 1.7 µM | 4.9 µM | C (>80% EGFR protein remaining after 72 hours of incubation with the test compound at a concentration of 300 nM) | C (>80% EGFR protein remaining after 72 hours of incubation with the test compound at a concentration of 300 nM)
Cc1ncsc1-c1ccc(CNC(=O)[C@@H]2C[C@@H](O)CN2C(=O)[C@H](C(C)C)N2Cc3ccccc3C2=O)c(OCCOCCOCCOCCOCC#Cc2cccc3c2C(=O)N([C@@H](C(=O)Nc2nccs2)c2cc(F)ccc2O)C3)c1 [compound 259] | 3.1 µM | 0.55 µM | 2.1 µM | 2.1 µM | C (>80% EGFR protein remaining after 72 hours of incubation with the test compound at a concentration of 300 nM) | C (>80% EGFR protein remaining after 72 hours of incubation with the test compound at a concentration of 300 nM)
Cc1ncsc1-c1ccc(CNC(=O)[C@@H]2C[C@@H](O)CN2C(=O)[C@H](C(C)C)N2Cc3ccccc3C2=O)c(OCCOCCOCCOCCOCCOCC#Cc2cccc3c2C(=O)N([C@@H](C(=O)Nc2nccs2)c2cc(F)ccc2O)C3)c1 [compound 260] | 20 µM | 0.56 µM | 3.2 µM | > 30 µM | C (>80% EGFR protein remaining after 72 hours of incubation with the test compound at a concentration of 300 nM) | C (>80% EGFR protein remaining after 72 hours of incubation with the test compound at a concentration of 300 nM)
O=C1CCC(N2C(=O)c3ccc(OCCOCCOCC#Cc4cccc5c4C(=O)N([C@@H](C(=O)Nc4nccs4)c4cc(F)ccc4O)C5)cc3C2=O)C(=O)N1 (stereo partly drawn) [compound 261] | 3.5 µM | 0.18 µM | 2.2 µM | 4.9 µM | C (>80% EGFR protein remaining after 72 hours of incubation with the test compound at a concentration of 300 nM) | C (>80% EGFR protein remaining after 72 hours of incubation with the test compound at a concentration of 300 nM)
O=C1CCC(N2C(=O)c3ccc(OCCOCCOCCOCCOCC#Cc4cccc5c4C(=O)N([C@@H](C(=O)Nc4nccs4)c4cc(F)ccc4O)C5)cc3C2=O)C(=O)N1 (stereo partly drawn) [compound 262] | 0.43 µM | 0.25 µM | 3.7 µM | 7.4 µM | C (>80% EGFR protein remaining after 72 hours of incubation with the test compound at a concentration of 300 nM) | C (>80% EGFR protein remaining after 72 hours of incubation with the test compound at a concentration of 300 nM)
O=C1CCC(N2C(=O)c3cccc(NCCOCCOCCOCC#Cc4cccc5c4C(=O)N([C@@H](C(=O)Nc4nccs4)c4cc(F)ccc4O)C5)c3C2=O)C(=O)N1 (stereo partly drawn) [compound 265] | 27 µM | 0.29 µM | 3.6 µM | 20 µM | C (>80% EGFR protein remaining after 72 hours of incubation with the test compound at a concentration of 300 nM) | C (>80% EGFR protein remaining after 72 hours of incubation with the test compound at a concentration of 300 nM)
O=C1CCC(N2C(=O)c3cccc(NCCOCCOCCOCCOCC#Cc4cccc5c4C(=O)N([C@@H](C(=O)Nc4nccs4)c4cc(F)ccc4O)C5)c3C2=O)C(=O)N1 (stereo partly drawn) [compound 266] | > 30 µM | 2.6 µM | 10 µM | > 30 µM | C (>80% EGFR protein remaining after 72 hours of incubation with the test compound at a concentration of 300 nM) | C (>80% EGFR protein remaining after 72 hours of incubation with the test compound at a concentration of 300 nM)
